This is an account of results in ChEMBL document CHEMBL1133337, “Synthesis and transfection properties of novel non-toxic monocationic lipids. Variation of lipid anchor, spacer and head group structure” (2000).

What all share (assay type): functional, Cercopithecidae
Experiment [1] has as its system COS-7. In words: Transfection efficiency when the compound/DNA charge ratio was 13:1.
Experiment [2] relates to COS-7. In words: Transfection efficiency when the compound/DNA charge ratio was 11:1.
The test system of experiment [3] is COS-7. Nature of the experiment: Transfection efficiency when the compound/DNA charge ratio was 7:1.
Experiment [4] concerns COS-7. In words: Transfection efficiency when the compound/DNA charge ratio was 1:1.
The subject of experiment [5] is COS-7. In words: Transfection efficiency when the compound/DNA charge ratio was 5:1.
Experiment [6] relates to COS-7. In words: Transfection efficiency when the compound/DNA charge ratio was 9:1.
The test system of experiment [7] is COS-7. In words: Transfection efficiency when the compound/DNA charge ratio was 3:1.
Experiment [8] concerns COS-7. In words: Transfection efficiency when the compound/DNA charge ratio was 15:1.

Regarding `CC(C)CCCC(C)[C@H]1CC[C@H]2C3CC=C4C[C@@H](OC(=O)C[N+](C)(C)CCO)CCC4(C)[C@H]3CCC12C` (stereo partly specified), the Transfection efficiency in the experiment with COS-7 [1] was 30000 RLU (ug of protein)-1; in the experiment on COS-7 [2], 31100 RLU (ug of protein)-1; with COS-7 [3], 26500 RLU (ug of protein)-1; with COS-7 [4], 4300 RLU (ug of protein)-1; with COS-7 [5], 18500 RLU (ug of protein)-1; with COS-7 [6], 29600 RLU (ug of protein)-1. The values for the Transfection efficiency in the experiment with COS-7 [7] and in the experiment on COS-7 [8] were 4800 RLU (ug of protein)-1 and 31000 RLU (ug of protein)-1, respectively.
Turning to `CC(C)CCCC(C)[C@H]1CC[C@H]2C3CC=C4C[C@@H](OC(=O)OCC[N+](C)(C)C)CCC4(C)[C@H]3CCC12C` (stereo partly specified), the Transfection efficiency in the experiment with COS-7 [1] is 2200 RLU (ug of protein)-1; in the experiment on COS-7 [2], 3600 RLU (ug of protein)-1; with COS-7 [3] it was 45400 RLU (ug of protein)-1; in the experiment with COS-7 [4], 48500 RLU (ug of protein)-1; with COS-7 [5], 77200 RLU (ug of protein)-1; in the experiment with COS-7 [6], 11400 RLU (ug of protein)-1. In addition, the Transfection efficiency with COS-7 [7] is listed as 97200 RLU (ug of protein)-1; in the experiment with COS-7 [8], 2000 RLU (ug of protein)-1.
Consider `CC(C)CCCC(C)[C@H]1CC[C@H]2C3CC=C4C[C@@H](OC(=O)CCC(=O)OCCN(C)C)CCC4(C)[C@H]3CCC12C` (stereo partly specified), for which the Transfection efficiency in the experiment with COS-7 [1] is recorded as 7200 RLU (ug of protein)-1; in the experiment on COS-7 [2], 7500 RLU (ug of protein)-1; in the experiment on COS-7 [3] it was 10600 RLU (ug of protein)-1; with COS-7 [4] it was 14000 RLU (ug of protein)-1; with COS-7 [5], 12200 RLU (ug of protein)-1; in the experiment on COS-7 [6], 9600 RLU (ug of protein)-1. Further, the values for the Transfection efficiency in the experiment on COS-7 [7] and in the experiment on COS-7 [8] were 27000 RLU (ug of protein)-1 and 6700 RLU (ug of protein)-1, respectively.
With `CCCCCCCCCCCCCCOCC(COC(=O)C[N+](C)(C)C)OCCCCCCCCCCCCCC` (stereo unspecified), the Transfection efficiency in the experiment on COS-7 [1] was 29400 RLU (ug of protein)-1; with COS-7 [2] it was 18700 RLU (ug of protein)-1; in the experiment on COS-7 [3] it was 15100 RLU (ug of protein)-1; in the experiment on COS-7 [4], 4200 RLU (ug of protein)-1; in the experiment with COS-7 [5], 10000 RLU (ug of protein)-1; with COS-7 [6], 17700 RLU (ug of protein)-1. Further, the Transfection efficiency with COS-7 [7] is listed as 4100 RLU (ug of protein)-1; in the experiment with COS-7 [8] it was 31400 RLU (ug of protein)-1.
Turning to `CC(C)CCCC(C)[C@H]1CC[C@H]2C3CC=C4C[C@@H](OC(=O)CCC(=O)OCCCN(C)C)CCC4(C)[C@H]3CCC12C` (stereo partly specified), the Transfection efficiency is 6100 RLU (ug of protein)-1 in the experiment on COS-7 [1]; 6000 RLU (ug of protein)-1 with COS-7 [2]; 8900 RLU (ug of protein)-1 in the experiment on COS-7 [3]; 8000 RLU (ug of protein)-1 with COS-7 [4]; 9200 RLU (ug of protein)-1 in the experiment with COS-7 [5]; 9100 RLU (ug of protein)-1 in the experiment on COS-7 [6]. For the same compound, the Transfection efficiency is 9200 RLU (ug of protein)-1 with COS-7 [7] and 4700 RLU (ug of protein)-1 in the experiment on COS-7 [8].
`CC(C)CCCC(C)[C@H]1CC[C@H]2C3CC=C4C[C@@H](OC(=O)OCCN(C)C)CCC4(C)[C@H]3CCC12C` (stereo partly specified): the Transfection efficiency with COS-7 [1] is recorded as 10900 RLU (ug of protein)-1; with COS-7 [2] it was 15200 RLU (ug of protein)-1; with COS-7 [3], 41800 RLU (ug of protein)-1; in the experiment on COS-7 [4] it was 40500 RLU (ug of protein)-1; in the experiment with COS-7 [5], 76600 RLU (ug of protein)-1; in the experiment with COS-7 [6] it was 24800 RLU (ug of protein)-1. Further, the Transfection efficiency in the experiment on COS-7 [7] is 93000 RLU (ug of protein)-1; in the experiment with COS-7 [8] it was 7400 RLU (ug of protein)-1.
On to `CC(C)CCCC(C)[C@H]1CC[C@H]2C3CC=C4C[C@@H](OC(=O)CCC(=O)NCCCN(C)C)CCC4(C)[C@H]3CCC12C` (stereo partly specified), for which the Transfection efficiency in the experiment on COS-7 [1] is listed as 7900 RLU (ug of protein)-1; in the experiment on COS-7 [2] it was 8800 RLU (ug of protein)-1; in the experiment with COS-7 [3], 14800 RLU (ug of protein)-1; with COS-7 [4] it was 12800 RLU (ug of protein)-1; in the experiment with COS-7 [5], 22500 RLU (ug of protein)-1; with COS-7 [6], 9800 RLU (ug of protein)-1. In addition, the Transfection efficiency with COS-7 [7] was 37300 RLU (ug of protein)-1; in the experiment on COS-7 [8], 8000 RLU (ug of protein)-1.
Take `CC(C)CCCC(C)[C@H]1CC[C@H]2C3CC=C4C[C@@H](OC(=O)OCC[N+](C)(C)CCO)CCC4(C)[C@H]3CCC12C` (stereo partly specified): the Transfection efficiency in the experiment on COS-7 [1] is reported as 5000 RLU (ug of protein)-1; in the experiment with COS-7 [2], 8100 RLU (ug of protein)-1; in the experiment with COS-7 [3], 10500 RLU (ug of protein)-1; in the experiment with COS-7 [4], 17300 RLU (ug of protein)-1; in the experiment with COS-7 [5], 25500 RLU (ug of protein)-1; with COS-7 [6] it was 8700 RLU (ug of protein)-1. In addition, the Transfection efficiency with COS-7 [7] is reported as 83200 RLU (ug of protein)-1; in the experiment with COS-7 [8], 5300 RLU (ug of protein)-1.
For the compound `CC(C)CCCC(C)[C@H]1CC[C@H]2C3CC=C4C[C@@H](OC(=O)C[N+](C)(C)C)CCC4(C)[C@H]3CCC12C` (stereo partly specified), the Transfection efficiency is 2000 RLU (ug of protein)-1 with COS-7 [1]; 2800 RLU (ug of protein)-1 with COS-7 [2]; 5300 RLU (ug of protein)-1 with COS-7 [3]; 17000 RLU (ug of protein)-1 in the experiment with COS-7 [4]; 20100 RLU (ug of protein)-1 in the experiment on COS-7 [5]; 4300 RLU (ug of protein)-1 with COS-7 [6]. Moreover, the Transfection efficiency in the experiment with COS-7 [7] is listed as 86600 RLU (ug of protein)-1; in the experiment on COS-7 [8], 1700 RLU (ug of protein)-1.
Consider `CC(C)CCCC(C)[C@H]1CC[C@H]2C3CC=C4C[C@@H](OC(=O)CCC(=O)NCCN(C)C)CCC4(C)[C@H]3CCC12C` (stereo partly specified), for which the Transfection efficiency with COS-7 [1] was 54300 RLU (ug of protein)-1; in the experiment with COS-7 [2] it was 75400 RLU (ug of protein)-1; in the experiment on COS-7 [3], 108900 RLU (ug of protein)-1; in the experiment on COS-7 [4], 17000 RLU (ug of protein)-1; with COS-7 [5], 94100 RLU (ug of protein)-1; in the experiment on COS-7 [6] it was 98100 RLU (ug of protein)-1. Also, the Transfection efficiency with COS-7 [7] is 41100 RLU (ug of protein)-1; in the experiment with COS-7 [8] it was 36500 RLU (ug of protein)-1.
Consider `CC(C)CCCC(C)[C@H]1CC[C@H]2C3CC=C4C[C@@H](OC(=O)CN(C)C)CCC4(C)[C@H]3CCC12C` (stereo partly specified), for which the Transfection efficiency is given as 2100 RLU (ug of protein)-1 in the experiment on COS-7 [1]; 3100 RLU (ug of protein)-1 with COS-7 [2]; 1700 RLU (ug of protein)-1 with COS-7 [3]; 6900 RLU (ug of protein)-1 with COS-7 [4]; 1500 RLU (ug of protein)-1 with COS-7 [5]; 2000 RLU (ug of protein)-1 in the experiment on COS-7 [6]. Besides, the Transfection efficiency in the experiment on COS-7 [7] is 4000 RLU (ug of protein)-1; in the experiment on COS-7 [8], 3400 RLU (ug of protein)-1.
As for `CCCCCCCCCCCCCCOCC(COC(=O)CN(C)C)OCCCCCCCCCCCCCC` (stereo unspecified), the Transfection efficiency is listed as 2500 RLU (ug of protein)-1 in the experiment with COS-7 [1]; 1000 RLU (ug of protein)-1 with COS-7 [2]; 600 RLU (ug of protein)-1 in the experiment with COS-7 [3]; 3300 RLU (ug of protein)-1 in the experiment on COS-7 [4]; 5500 RLU (ug of protein)-1 in the experiment with COS-7 [5]; 1700 RLU (ug of protein)-1 with COS-7 [6]. The Transfection efficiency is recorded as 8000 RLU (ug of protein)-1 in the experiment on COS-7 [7] and 600 RLU (ug of protein)-1 in the experiment on COS-7 [8].
